These results are taken from patent US4786755A, “Diphenic acid monoamides” (Warner-Lambert Company, priority 1986, dated 1988).

For the assay, the target named is T1, leukotriene receptor (Cavia porcellus, UniProt Q2NNR5).
T1 construct: 20 mg original tissue wet weight of guinea pig lung membranes; tissue Kuiper Rabbit Farm, Gary, IN (animals); host or cells: guinea pig lung, crude membranes
T1 sequence (Q2NNR5 1-340): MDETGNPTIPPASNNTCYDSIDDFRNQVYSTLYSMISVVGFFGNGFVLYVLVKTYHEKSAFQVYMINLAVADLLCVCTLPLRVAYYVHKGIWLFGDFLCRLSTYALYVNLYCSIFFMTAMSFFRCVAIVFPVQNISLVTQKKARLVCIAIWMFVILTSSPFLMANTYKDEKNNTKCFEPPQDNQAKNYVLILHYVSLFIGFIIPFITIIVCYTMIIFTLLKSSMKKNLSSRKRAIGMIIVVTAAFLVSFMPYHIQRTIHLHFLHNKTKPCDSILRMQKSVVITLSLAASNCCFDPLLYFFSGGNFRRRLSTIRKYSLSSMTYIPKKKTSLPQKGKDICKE
The assay can be described thus: Binding of ^3 H-Leukotriene D4 to Guinea Pig Lung Membranes (RBL). Conditions: ^3 H-LTD4, guinea pig lung membranes; read-out: IC50 RBL1. Here is the method: Additionally, the activity, of the compounds having the Formula I of the present invention is determined by the well known leukotriene receptor binding assay that is described by R. F. Bruns, W. J. Thomsen and T. A. Pugsley in Life Sciences, 33, 645 (1983) or the Herxheimer in vivo antiallergy test described in H. Herxheimer, J. Physiol. (London), Vol. 177, p. 251 (1952).
Binding of ^3 H-Leukotriene D4 to Guinea Pig Lung Membranes (RBL)
[14,15-^3 H]leukotriene D4 (^3 H-LTD4) (25 Ci/mmol and 40 Ci/mmol) is purchased from New England Nuclear. Unlabeled LTC4 is a gift of Ono Pharmaceuticals (Japan). LTC4, LTD4, and LTE4 are purchased as methyl esters from Paesel GmbH (Frankfurt, W. Germany). Concentrations of the Paesel leukotrienes are calculated from their absorbance at 280 nm. Leukotriene esters are saponified overnight under N2 in 3.3% potassium carbonate at room temperature. Tritiated leukotrienes are stored as received from New England Nuclear at -20° C. Ono LTC4 (5 μg/ml is stored at -60° C. in phosphate buffer pH 6.8. Saponified Paesel leukotrienes are stored at -60° C. in 3.3% potassium carbonate (pH 9.0-9.5). Aliquots of leukotrienes are taken from stock solutions immediately after thawing, after which the stock solutions are immediately refrozen. 2-Amino-2-(hydroxymethyl)-1,3-propanediol (Tris) is Sigma pH 7.7 pre-set crystals, and dimethylsulfoxide is Aldrich Gold Label.
Preparation of crude lung membranes
Two pairs of lungs (1.3 g) from freshly sacrificed 300 g male guinea pigs (older animals gave substantially lower binding) from Kuiper Rabbit Farm, Gary, IN are disrupted with a Polytron PT 10 (setting 4) for 30 seconds in 20 ml ice-cold 50 mM Tris adjusted with HCl to pH 7.7 at 25° C. (Tris buffer), filtered through a single layer of gauze to remove connective tissue, and centrifuged at 50,000 xg for ten min. The pellet is resuspended by homogenization with a Polytron in 20 ml Tris buffer, centrifuged at 50,000 xg for ten min., resuspended, incubated at 37° C. for 30 minutes, and centrifuged again. The final pellet is resuspended in Tris buffer and either used fresh or stored at -70° C.
All incubations are in triplicate for 60 minutes at 25° C. in 12×75 mm polystyrene tubes containing 1 ml Tris buffer with 20 mg original tissue wet weight of guinea pig lung membranes, 0.2 nM ^3 H-LTD4 (6,000-11,000 cpm), 10 mM MgCl2, and 1% dimethylsulfoxide. Leukotrienes are diluted in Tris buffer. All other test compounds are dissolved at 10 mM in dimethylsulfoxide on the same day as the experiment, and diluted in dimethylsulfoxide to 100× the final incubation concentration. Control incubations receive an equal volume (10 μl) of dimethylsulfoxide; the resulting concentration of dimethylsulfoxide had no effect on binding. ^3 H-LTD4 is diluted to 2 nM in Tris buffer. The membrane suspension (20 mg/0.89 ml) contains sufficient MgCl2 to give 10 mM final concentration in the incubation. […] All additions are performed at 0° C. Immediately after the last addition, the incubation is initiated by agitating the rack of tubes on a vortex mixer and warming to 25° C. in a water bath. Tubes are vortexed at least once more during the incubation to ensure that the membranes remained suspended. Incubations are terminated after 60 minutes by filtering under reduced pressure through 25 mm Whatman GF/B filters followed by rapid washing three times with 4 ml of ice-cold Tris buffer. Filters are added to scintillation vials with 8 ml Formula 947 (New England Nuclear), left overnight, shaken, and the radioactivity counted in a scintillation counter (efficiency 40%). Nonspecific binding, defined as binding of ^3 H-LTD4 in the presence of 100 nM LTC4, is 300-500 cpm for all lots of ^3 H-LTD4. Binding to the filters in the absence of tissue is about 100 cpm, and is not affected by unlabeled LTC4. Specific binding, defined as total binding minus nonspecific binding, varied considerably from lot to lot of ^3 H-LTD4. […]
Regarding `O=C(O)c1ccccc1-c1ccccc1C(=O)Nc1cccc(CCCc2ccc(Cl)c(Cl)c2)c1` [Example 6, [1,1'-Biphenyl]-2-carboxylic acid, 2'-[[[3-[3-(3,4-dichlorophenyl)propyl]phenyl]amino]carbonyl]], the IC50 worked out at 1 µM.
Turning to `O=C(O)c1ccccc1-c1ccccc1C(=O)Nc1ccc(CCc2cc(C(F)(F)F)cc(C(F)(F)F)c2)cc1` [Example 13, [1,1'-Biphenyl]-2-carboxylic acid, 2'-[[[4-[2-[3,5-bis(trifluoromethyl)phenyl]ethyl]phenyl]amino]carbonyl]-], the IC50 was 5.4 µM.
Next, `CCCCCCCCCCc1ccc(NC(=O)c2ccccc2-c2ccccc2C(=O)O)cc1` [Example 20]: 11.2 µM; `O=C(O)c1ccccc1-c1ccccc1C(=O)Nc1ccc(OCCCCc2ccccc2)cc1` [Example 44, [1,1'-Biphenyl]-2-carboxylic acid, 2'-[[[4-(4-phenylbutyloxy)phenyl]amino]carbonyl]-]: 1.2 µM; `O=C(C=Cc1ccc(Cl)c(Cl)c1)c1ccc(NC(=O)c2ccccc2-c2ccccc2C(=O)O)cc1` [Example 46, [1,1'-Biphenyl]-2-carboxylic acid, 2'-[[[4-[1-oxo-3-(3,4-dichlorophenyl)-2-propenyl]phenyl]amino]-carbonyl]-]: 5.7 µM.
In the case of `O=C(C=Cc1ccc(Br)cc1)c1ccc(NC(=O)c2ccccc2-c2ccccc2C(=O)O)cc1` [Example 47, [1,1'-Biphenyl]-2-carboxylic acid, 2'-[[[4-[1-oxo-3-(4-bromophenyl)-2-propenyl]phenyl]amino]carbonyl]-], the IC50 turned out to be 27.1 µM.
As for `CN(C)c1ccc(CCC(=O)c2ccc(NC(=O)c3ccccc3-c3ccccc3C(=O)O)cc2)cc1` [Example 48, [1,1'-Biphenyl]-2-carboxylic acid, 2'-[[[4-[1-oxo-3-(4-dimethylaminophenyl)propyl]phenyl]amino]carbonyl]-], the IC50 was 53.1 µM.
Next, `O=C(CCc1ccc(Cl)cc1)c1ccc(NC(=O)c2ccccc2-c2ccccc2C(=O)O)cc1` [Example 49, [1,1'-Biphenyl]-2-carboxylic acid, 2'-[[[4-[1-oxo-3-(4-chlorophenyl)propyl]phenyl]amino]carbonyl]-]: 7.5 µM.
`O=C(O)c1ccccc1-c1ccccc1C(=O)Nc1cccc(CCCCc2ccc(Cl)c(Cl)c2)c1` [Example 50, [1,1'-Biphenyl]-2-carboxylic acid, 2'-[[[3-[4-(3,4-dichlorophenyl)butyl]phenyl]amino]carbonyl]-]: the IC50 was found to be 0.7 µM.
For the compound `O=C(CCc1ccc(Br)cc1)c1ccc(NC(=O)c2ccccc2-c2ccccc2C(=O)O)cc1` [Example 51, [1,1'-Biphenyl]-2-carboxylic acid, 2'-[[[4-[1-oxo-3-(4-bromophenyl)propyl]phenyl]amino]-carbonyl]-], the IC50 amounted to 7.2 µM.
In the case of `O=C(O)c1ccccc1-c1ccccc1C(=O)Nc1ccc(CCc2ccc(Oc3ccccc3)cc2)cc1` [Example 52], the IC50 was determined as 13.2 µM.
As to `O=C(O)c1ccccc1-c1ccccc1C(=O)Nc1cccc(CCc2ccc(Oc3ccccc3)cc2)c1` [Example 53], the IC50 turned out to be 2.4 µM.
As for `O=C(CCc1ccc(NC(=O)c2ccccc2-c2ccccc2C(=O)O)cc1)c1ccc(Oc2ccccc2)cc1` [Example 54, [1,1'-Biphenyl]-2-carboxylic acid, 2'-[[[4-[3-oxo-3-(4-phenoxyphenyl)propyl]phenyl]amino]carbonyl]-], the IC50 worked out at 17.1 µM.
For `O=C(O)c1ccccc1-c1ccccc1C(=O)Nc1ccc(CCCc2ccc(Oc3ccccc3)cc2)cc1` [Example 55, [1,1'-Biphenyl]-2-carboxylic acid, 2'-[[[4-[3-(4-phenoxyphenyl)propyl]phenyl]amino]carbonyl]-] the value was 13.1 µM.
For `O=C(CCCCc1ccc(Cl)c(Cl)c1)c1ccc(NC(=O)c2ccccc2-c2ccccc2C(=O)O)cc1` [Example 56, [1,1'-Biphenyl]-2-carboxylic acid, 2'-[[[4-[5-(3,4-dichlorophenyl)-1-oxopentyl]phenyl]amino]-carbonyl]-] the value was 3.8 µM.
